The values that follow come from patent US20180140537A1, “ACTIVE COMPLEX FOR A COSMETIC PRODUCT AGAINST SKIN AGEING” (priority 2014, published 2018).

The subject of data set [1] is MMP-1. In words: MMP-1 ELISA on UV-A irradiated fibroblasts (DPM). The data set is classed as cell-based, human. The settings on record: for DPM, % reduction of MMP-1 / [MMP-1]: VE 1 mM; for [MMP-1]: (+) UV-A, corrected for cell proteins. As to the method:
(§1) 3.2.1) The principle of the assay is based on the evaluation of 2 parameters—neosynthesis of collagen I and production of MMP-1—on human fibroblasts [NHDF] cultivated in the absence or in the presence of the assay element, and stimulated by UV-A.
(§2) The level of procollagen I is quantified by assaying [PIP] (procollagen of the I peptide type) in incubation media by means of an ELISA assay. The measurement of the MMP-1 level is conducted on the incubation media by means of an ELISA assay.
(§3) Fibroblasts [NHDF] are detached from their support by trypsinization. After counting, the cell suspension is sown in 24-well plates in an amount of 1.10^5 cells/well, in a [D-MEM+10% FCS] medium.
(§4) After 24 h of incubation, the culture medium is removed and replaced with fresh medium supplemented with 1% of FCS, without any ascorbic acid and containing the product(s) to be investigated. The cells are replaced in the oven and incubated for 24 h, in an air-CO2 atmosphere (95%/5%).
(§5) After incubation with test solutions, the cells are rinsed with HBSS and then exposed to UV-A (Philips TL-K 40 W ACTINIC BL REFLECTOR tubes) through HBSS. The UV-A irradiation is of about 10 J/cm^2 for 1 h. After irradiation, the HBSS is replaced with fresh medium containing the assay element.
(§6) The cells are replaced at 37° C. and incubated for 24 h. At the end of the assay, the incubation media of the cultures are sampled and frozen at −20° C. while awaiting the assaying of procollagen I and of MMP-1.
(§7) In parallel, the cell mats are rinsed with HBSS and treated for an assay of cell proteins (BCA protein assay). A (0.1N) NaOH solution is added into each well. After incubation, the extracts are sampled and transferred into a 96-well plate. 200 μl of BCA reagent are added into each well. After incubation, the absorbance (optical density) is measured at 570 nm with a microplate reader.
The MMP-1 activity is measured with an ELISA assay (Human Active MMP-1 from R&D Systems® laboratories, FRANCE) for detecting and quantifying by fluorescence the MMP-1 activity.
(§8) In both cases, the quantification of the fluorescence is accomplished in the culture supernatants, according to the instructions provided by the R&D Systems® laboratories, France, the absorbance being measured at 450 nm.
(§9) The assay was carried out on [NHDF] (F06.2H7 strain) fibroblasts cultivated in a [DMEM+1% FCS] medium, in the absence of sodium ascorbate.
(§10) The levels of procollagen I and of MMP-1 were measured in the supernatants of the cultures after treatment and irradiation of the cells.
(§11) The NHDF cells were treated with the assay complexes CAAL-2, CAAL-3 and CAAL-4, before (24 h) and after (24 h) UVA irradiation.
(§12) The concentrations of procollagen I [PIP] c-terminal peptide and of metalloproteinase-1 [MMP-1] in the different samples (ng/ml) were corrected according to the protein concentrations of the corresponding wells.
DPM=% of reduction in metalloproteinase-1 after treatment of NHDF fibroblasts with UVs in the presence of the complex according to the invention relatively to a control having been subject to a same UV treatment in the absence of an assay complex according to the present invention or other.
(§13) Assay conditions: • 1. Treating the cells, for 24 h, with the assay elements, before irradiation of the cells, • 2. Exposure of the cells to UV-As, in the absence of the assay elements, • 3. Incubation of the irradiated cells for 24 h, in the presence of the assay elements, • 4. Quantification of the levels of pro-collagen I ([PIP] assay) and of MMP-1 in the incubation media.
(§14) Results: The [PIP] and [MMP] values recorded at the control and treated cultures were corrected according to the average level of cell proteins (μg/well).
MMP-1 production: assay of MMP-1 in the incubation media by an Elisa assay.
Background: An ELISA detects its analyte on a solid surface through an enzyme-linked reagent.

For data set [2], the system named is HaCaT keratinocytes and NHDF fibroblasts. In words: Skin anti-ageing potential index AAC = AOE + 1/2 DPC + 1/2 DPM. More on the design: species or system human. The settings on record: Example 1; AOE+½DPC+½DPM. As to the method: An anti-age activity index designated as “AAC” was determined according to the present invention, which is a quantitative parameter of the anti-ageing skin potential of a test element taking into account a protective effect at the epidermis by integrating an epidermal anti-oxidant effect score and a protective effect at the dermis by integrating a dermo-protective effect score towards the synthesis of collagen, a main marker of the dermal extracellular matrix (ECM) and/or towards the degradation of metalloproteinase-1 (MMP-1) which is a collagenase enzyme produced by the fibroblasts of the dermis degrading the dermal extracellular matrix (ECM). Still more specifically, a capability is sought for opposing the reduction of collagen synthesis following UV stress and opposing the increase in the production of metalloproteinase-1 for ensuring dermal homeostasis.
More specifically, according to the present invention, an AAC potential is defined as follows:
[AOE]: % of epidermal anti-oxidant potential as defined hereafter.
[DPC.]: % of dermo-protective collagen potential as defined hereafter.
[DPM]: % of dermo-protective MMP1 potential as defined hereafter.
The skin anti-ageing potential ([AAC]) was calculated from the experimental data according to:
[A.A.C]=[AOE]+½.[DPC]+½.[DPM]

The test system of data set [3] is procollagen I. In words: Procollagen I [PIP] ELISA on UV-A irradiated fibroblasts (DPC). The data set is classed as cell-based, human. As to the method: as §1, §2, §3, §4, §5, §6, §7
The assay of the procollagen I in the samples is carried out with an ELISA assay (Procollagen Type I C-Peptide EIA Kit from R&D Systems® laboratories, France) for detecting and quantifying by fluorescence the C-terminal peptide of human procollagen I.
as §8, §9, §10, §11, §12
DPC=% of increase in collagen after treatment of the NHDF fibroblast cells with UV in the presence of the complex according to the invention relatively to a control having been subject to a same UV treatment in the absence of the assay complex according to the present invention or other; and
as §13, §14
Synthesis of procollagen I: assay of the [PIP] (procollagen of the type I peptide) assay in the incubation media.

In data set [4] the test system is HaCaT keratinocytes. In words: DCFH assay: UV-B-induced intracellular ROS (epidermal anti-oxidant potential, AOE). In kind it is cell-based, human. The settings on record: for AOE, % reduction of [ROSUV]: vs (+) UV control. From the text:
3.1.1) The principle of the assay is based on the measurement of the intracellular oxidation level by means of the probe: 2′,7′-dichloro-dihydrofluorescein diacetate (DCFH-DA). Non-fluorescent DCFH-DA penetrates by passive diffusion into the cells. After cleavage of the acetate groups by the esterases, DCFH accumulates at the cytosol. The oxidation of DCFH by the reactive oxygen species (ROS: “Reactive Oxidative Species”) leads to the formation of a fluorescent compound. The DCF fluorescence intensity gives the possibility of evaluating the oxidation level of the cells subject to an oxidative stress.
More specifically, the measurement of the fluorescence intensities of DCF gives the possibility of evaluating the oxidation level of the cells subject to an oxidative stress. The DCFH assay detects a large range of ROSes: hydroxyl peroxyl and other ROSes (Fluorescence probes used for detection of reactive oxygen species, A. Gomes et al., J. Biochem. Biophys. Methods, 65:45-80; 2005).
HaCaT keratinocytes cultivated in a mono-layer are detached by trypsinization. The cell suspension is sown in 24-well plates.
2 plates are sown in parallel: 1 plate [DCFH] (measurement of DCFH fluorescence) and 1 plate [Prot] (measurement of cell proteins).
The plates [DCFH] and [Prot] are treated in parallel, in an identical way, according to the following experimental procedure.
72 hours after sowing, the culture medium is removed and replaced with fresh medium containing the assay element. The cells are replaced at 37° C. and incubated for 24 hours, in an air-CO2 atmosphere (95%/5%). After incubation with the assay element, the cells are rinsed with HBSS (a so called Hanks solution) and then exposed to UV-B (Philips TL-K 40 W ACTINIC BL REFLECTOR tubes) through the HBSS. The cells were treated with the various assayed complexes before (24 h) and after (24 h) irradiation with UV-B for about 30 minutes at 20 mJ/cm^2.
After irradiation, the HBSS is replaced with fresh medium containing the assay element. The cells are replaced at 37° C. for 24 h in an air-CO2 atmosphere (95%/5%). At the end of the assay, the [DCFH] and [Prot] plates are treated, in the following way:
The [DCFH] plates are emptied and rinsed with PBS. The cells are then incubated at 37° C., in the presence of a DCFH-DA solution. After incorporating the probe, the cells are rinsed with PBS. An extraction buffer (Triton X-100 1%) is added into each well. After 45 mins of incubation, the lyzates are sampled, transferred into 96-well plates. The fluorescence intensities (λExc: 485 nm, λEm: 535 nm) are expressed in relative fluorescence units (RFU).
A dosage of the proteins (BCA protein assay) is carried out in parallel in order to correct the [DCFH] values (RFU/well) according to the cell protein level (pg/well) in order to do without a variation in the number of cells related to an effect of the assay element on cell growth.
The assay was carried out on HaCaT keratinocytes (HaCaTp91 strain) cultivated in a [DMEM+1% FCS] medium. The intracellular oxidation level was measured after treatment and irradiation of the cells.
The intracellular oxidation level (F.R.U/well: relative fluorescence unit) recorded at the control and treated cultures was corrected according to the average cell protein level (μg/well). The values [DCFH] are expressed in arbitrary units (from the optical densities): [DCFH]=(F.R.U/μg prot.).
Assay conditions: • 1. Pretreating the cells for 24 h, with the assay elements, before irradiation of the cells, • 2. Exposure of the cells to UV-B (20 mJ/cm^2), in the absence of the assay elements, • 3. Incubation of the irradiated cells for 24 h, in the presence of the assay elements, • 4. Quantification of the intracellular oxidation level (ROS) by measuring the fluorescence of DCFH.
The intracellular oxidation level (RFU/well) recorded at the control and treated cultures were corrected according to the average level of cell proteins (μg/well). […]

The test system of data set [5] is human keratinocyte cells (HaCaT line) and fibroblasts. As to the method:
For each of the substances above, the maximum non-cytotoxic doses were determined, corresponding to cell viability ≥90% (hereafter “NCD”). Cell viability was evaluated by a neutral red test (NR) on human keratinocyte cells (HaCaT line) and on fibroblasts described hereafter after contact for 48 h. The substances were poured into the culture medium DMEM+10% FCS.

[6] abbreviates: Example 1, NHDF, vs (+) UV control.
Setting [7] is: Example 1, NHDF, vs (+) UV control, ASC 50 μg/ml.
Setting [8] is: Example 1, relative to (+) UV control 2 = 100%.
Setting [9] is: Example 2, NHDF, vs (+) UV control.

`O=C1O[C@H]([C@@H](O)CO)C([O-])=C1O.[Na+]` [ASC, sodium ascorbate]: in data set [1] (setting [6]), the “DPM, % reduction of MMP-1” value is on record as 0%. In data set [2], the “AAC skin anti-ageing potential” value was determined as 71.5%. Further, the “DPC, % increase in collagen” value in data set [3] (setting [7]) is recorded as 143%. Besides, in data set [3] (setting [8]), the “[PIP] (%)” value is 243%. Besides, in data set [3] (Example 2), the “[PIP] % of (+) UV control” value is reported as 243%. For the same compound, the “[PIP]” value in data set [3] (Example 2, NHDF, (+) UV-A, corrected for cell proteins, ASC 50 μg/ml) is on record as 3.79 +/− 0.04. Also, the “DPC dermo-protective collagen potential” value in data set [3] (setting [9]) is recorded as “capable of restoring neosynthesis of collagen I depressed by UVs”. The “AOE, % reduction of [ROSUV]” value in data set [4] (Example 1, VE 1 mM) is 0%.
As to `Cc1c(C)c2c(c(C)c1O)CC[C@@](C)(CCC[C@H](C)CCC[C@H](C)CCCC(C)C)O2` [VE, α-tocopherol], the “[MMP-1]” value is listed as 0.172+/— ng/ml in data set [1] (Example 1, NHDF, average +/- SD, n=3) and 0.198 +/− 0.006 in data set [1] (Example 2, NHDF). In addition, the “DPM, % reduction of MMP-1” value in data set [1] (setting [6]) is 31%. Besides, in data set [1] (setting [8]), the “[MMP-1] (%)” value turned out to be 69%. Moreover, in data set [1] (Example 2), the “[MMP-1] % of (+) UV control” value is given as 62%. For the same compound, the “DPM dermo-protective MMP1 potential, % reduction of MMP-1” value in data set [1] (setting [9]) is recorded as 38%. Besides, the “AAC skin anti-ageing potential” value in data set [2] is given as 96.5%. Also, in data set [3] (setting [7]), the “DPC, % increase in collagen” value is reported as 0%. In addition, in data set [4] (Example 1, HaCaT, (+) UV-B 20 mJ/cm2, treated 24 h before and 24 h after, complexes at Table I conc., VE 1 mM, average +/- SD, n=3), the “DCFH ASSAY intracellular oxidation level [DCFH]” value is listed as 35.72 +/− 2.66 F.R.U/μg prot. For the same compound, in data set [4] (Example 1, [DCFH] minus non-irradiated control 1), the “UV-induced ROS” value is given as 22.92 F.R.U/μg prot. The “UV-induced ROS (%)” value in data set [4] (setting [8]) is on record as 19%; in data set [4] (Example 2, relative to (+) UV control = 100%) it was 12%. For the same compound, in data set [4] (Example 1, VE 1 mM), the “AOE, % reduction of [ROSUV]” value stood at 81%. The “UV-induced ROS (DCFH minus non-irradiated control)” value in data set [4] (Example 2) amounted to 16.38 RFU/μg prot. Also, the “DCFH [ROS] intracellular oxidation level” value in data set [4] (Example 2, HaCaT, (+) UV-B 20 mJ/cm2, DMEM+FCS(1%), average +/- SD, n=3) is given as 28.03 +/− 1.12 RFU/μg prot. For the same compound, the “AOE anti-oxidant epidermal potential, % reduction of [ROSUV]” value in data set [4] (Example 2, vitamin E 1 mM) worked out at 88%.
Turning to sodium hyaluronate [SODIUM H[…]], the “NCD (%) by weight (maximum non-cytotoxic dose)” value in data set [5] is listed as 0.2% by weight.
